Assay results from patent US5604234A, “Substituted thiol macrolactam immunomodulators” (Abbott Laboratories, priority 1995, dated 1997).

Tested on: human mixed lymphocyte reaction (MLR)
Assay: human mixed lymphocyte reaction (MLR) assay, immunosuppressant activity
Type: cell-based
Details: Homo sapiens, Lymphocyte, Table 2
Description: The immunosuppressant activity of the compounds of the present invention was determined using the human mixed lymphocyte reaction (MLR) assay described by Kino, T. et al. in Transplantation Proceedings, XIX(5):36-39,Suppl. 6 (1987).

Point of comparison: `CC[C@@H]1/C=C(\C)C[C@H](C)C[C@H](OC)[C@H]2O[C@@](O)(C(=O)C(=O)N3CCCC[C@H]3C(=O)O[C@H](/C(C)=C/[C@@H]3CC[C@H]([S+](C)[O-])[C@H](OC)C3)[C@H](C)[C@@H](O)CC1=O)[C@H](C)C[C@@H]2OC` (single isomer, unassigned) [Example 127], IC50 12.5 nM. Against it:
- CC[C@@H]1/C=C(\C)C[C@H](C)C[C@H](OC)[C@H]2O[C@@](O)(C(=O)C(=O)N3CCCC[C@H]3C(=O)O[C@H](/C(C)=C/[C@@H]3CC[C@H](SCSC)[C@H](OC)C3)[C@H](C)[C@@H](O)CC1=O)[C@H](C)C[C@@H]2OC [Example 130] — 22-fold lower, 0.58 nM
- CC[C@@H]1/C=C(\C)C[C@H](C)C[C@H](OC)[C@H]2O[C@@](O)(C(=O)C(=O)N3CCCC[C@H]3C(=O)O[C@H](/C(C)=C/[C@@H]3CC[C@H](Sc4ccccc4)[C@H](OC)C3)[C@H](C)[C@@H](O)CC1=O)[C@H](C)C[C@@H]2OC [Example 132] — 3.7-fold lower, 3.4 nM
- CC[C@@H]1/C=C(\C)C[C@H](C)C[C@H](OC)[C@H]2O[C@@](O)(C(=O)C(=O)N3CCCC[C@H]3C(=O)O[C@H](/C(C)=C/[C@@H]3CC[C@H](S(C)(=O)=O)[C@H](OC)C3)[C@H](C)[C@@H](O)CC1=O)[C@H](C)C[C@@H]2OC [Example 129] — 11-fold lower, 1.15 nM
- CC[C@@H]1/C=C(\C)C[C@H](C)C[C@H](OC)[C@H]2O[C@@](O)(C(=O)C(=O)N3CCCC[C@H]3C(=O)O[C@H](/C(C)=C/[C@@H]3CC[C@H](SCOC)[C@H](OC)C3)[C@H](C)[C@@H](O)CC1=O)[C@H](C)C[C@@H]2OC [Example 131] — 2.4-fold lower, 5.2 nM
- CC[C@@H]1/C=C(\C)C[C@H](C)C[C@H](OC)[C@H]2O[C@@](O)(C(=O)C(=O)N3CCCC[C@H]3C(=O)O[C@H](/C(C)=C/[C@@H]3CC[C@H](SC)[C@H](OC)C3)[C@H](C)[C@@H](O)CC1=O)[C@H](C)C[C@@H]2OC [Example 90] — 17-fold lower, 0.75 nM
- CCC1C=C(C)CC(C)CC(OC)C2OC(O)(C(=O)C(=O)N3CCCCC3C(=O)OC(C(C)=CC3CCC(SCCC(=O)OCc4ccccc4)C(OC)C3)C(C)C(O)CC1=O)C(C)CC2OC (stereo not drawn) [Example 18] — within 1.5-fold, 18.5 nM
- CC[C@@H]1/C=C(\C)C[C@H](C)C[C@H](OC)[C@H]2O[C@@](O)(C(=O)C(=O)N3CCCC[C@H]3C(=O)O[C@H](/C(C)=C/[C@@H]3CC[C@H]([S+](C)[O-])[C@H](OC)C3)[C@H](C)[C@@H](O)CC1=O)[C@H](C)C[C@@H]2OC (stereo partly drawn) [Example 128] — within 1.5-fold, 15.5 nM

Same assay, conditions: Table 2

For `CC[C@@H]1/C=C(\C)C[C@H](C)C[C@H](OC)[C@H]2O[C@@](O)(C(=O)C(=O)N3CCCC[C@H]3C(=O)O[C@H](/C(C)=C/[C@@H]3CC[C@H]([S+]([O-])c4ccccc4)[C@H](OC)C3)[C@H](C)[C@@H](O)CC1=O)[C@H](C)C[C@@H]2OC` (single isomer, unassigned) [Example 133B], the IC50 was 6.5 nM.
